The assay has as its system ATF4 Nano Luciferase reporter (ATF4 translation / ISR pathway activation). In words: ATF4 Nano Luciferase reporter integrated stress response (ISR) assay in H4 ATF4-NLuc (clone 17) cells. The format is cell-based. The note with it: Homo sapiens, 0.5 h, compounds added for 30 minutes at 37° C., then 50 μm sodium arsenite for 6 additional hours, luminescence readout. The source says: Cellular stress leads to activation of the integrated stress response pathway through one of four eukaryotic initiation factor 2α kinases and halts global translation, while allowing for the translation of select transcripts like ATF4 (activating transcription factor 4) that are important for the response to cellular stress. During normal conditions, small open reading frames (ORFs) in the 5′ UTR of ATF4 occupy the ribosome and prevent translation of the coding sequence of ATF4. During stress conditions however, the ribosome scans past these upstream ORFs and preferentially begins translation at the coding sequence of ATF4. In this way, the translation, and thus protein level of ATF4 is a readout of ISR pathway activation. Thus, a fusion of the uORFs and the beginning of the coding sequence of ATF to a common cellular reporter like nano-luciferase allows for a sensitive and high-throughput readout of ISR pathway activity.
Certain compounds provided herein were tested in the following assay. The ATF4 Nano Luciferase reporter was constructed by fusing the human full length 5′ untranslated region (5′-UTR) and a small portion of the coding sequence of the ATF4 gene upstream of the Nano Luciferase (NLuc) coding sequence lacking it's start codon. Specifically, nucleotides +1 through +364 (relative to the transcriptional start site) of ATF4 transcript variant 2 (NCBI NM_182810.2) flanked 5′ by EcoRI and 3′ by BamHI restriction enzyme sites were synthesized and cloned into the EcoRI/BamHI cloning sites of pLVX-EF1a-IRES-Puro lentivirus vector (Clontech). Lentiviral particles were produced with Lenti-X single shots (VSV-G, Clontech) according to the manufacturer's instructions and used to transduce a human H4 neuroglioma cell line (ATCC HTB-148). H4 cells were selected with 1.25 μg/mL Puromycin, and clonal cell lines generated by limiting dilution. This cell line was utilized to generate an integrated stress response (ISR) assay to evaluate the activity of ISR pathway inhibitors via luminescence readout. The H4 ATF4-NLuc (clone 17) cell line was plated at a density of 15,000 or 2,500 cells in 96-well or 384-well respectively in DMEM+10% fetal bovine serum. 24-hours later test compounds diluted in dimethyl sulfoxide (DMSO) were added for 30 minutes at 37° C., followed by ISR pathway activation with […] sodium arsenite aqueous solution for 6 additional hours. Nano Glo luciferase reagent (N1150, Promega) was added according to manufacturer instructions and the luminescence signal (corresponding to the level of ATF4 translation and thus ISR pathway activation) was read with a standard plate reader with luminescence detection capabilities. In Table 2, the activity of certain compounds disclosed herein as tested in the assay above is provided.
(In general: A reporter such as luciferase makes a cellular process visible.)
As a reminder, the IC50 is the midpoint of a concentration-inhibition curve. A higher IC50 goes with weaker potency. In turn, `CN(CCOC(F)(F)F)c1nnc(C23CC(NC(=O)COc4ccc(C(F)(F)F)cc4)(C2)C3)o1` [Example 5] came in with a half-maximal inhibitory concentration (IC50) of 54 nM.

Take `O=C(COc1ccc(Br)cc1)NC12CC(c3nnc(OCCOCC(F)(F)F)o3)(C1)C2` [Example 7, 2-(4-bromophenoxy)-N-(3-(5-(2-(2,2,2-trifluoroethoxy)ethoxy)-1,3,4-oxadiazol-2-yl)bicyclo[1.1.1]pentan-1-yl)acetamide]: the IC50 came to 16 nM.

Turning to `O=C(COc1ccc(C(F)(F)F)cc1)NC12CC(c3nnc(OCCOC(F)(F)F)o3)(C1)C2` [Example 2], half-maximal inhibition (IC50) was put at 4.9 nM.

In turn, `O=C(COc1ccc(Cl)cc1)NC12CC(c3nnc(OCCOC(F)(F)F)o3)(C1)C2` [Example 1] displayed an IC50 of 62 nM.

Molecule `O=C(COc1ccc(C(F)(F)F)cc1)NC12CC(c3nnc(OCCOCC(F)(F)F)o3)(C1)C2` [Example 6, N-(3-(5-(2-(2,2,2-trifluoroethoxy)ethoxy)-1,3,4-oxadiazol-2-yl)bicyclo[1.1.1]pentan-1-yl)-2-(4-(trifluoromethyl)phenoxy)acetamide] yielded a half-inhibitory concentration (IC50) of 21 nM.

On to `O=C(COc1ccc(Cl)cc1)NC12CC(c3nnc(OCCOCC(F)(F)F)o3)(C1)C2` [Example 3], for which the IC50 was 16 nM.

For `O=C(COc1ccc(Br)cc1)NC12CC(c3nnc(OCCOC(F)(F)F)o3)(C1)C2` [Example 8, 2-(4-bromophenoxy)-N-(3-(5-(2-(trifluoromethoxy)ethoxy)-1,3,4-oxadiazol-2-yl)bicyclo[1.1.1]pentan-1-yl)acetamide], the IC50 was 23 nM.

`O=C(COc1ccc(C(F)(F)F)cc1)NC12CC(c3nnc(NCCOC(F)(F)F)o3)(C1)C2` [Example 4] had an IC50 of 36 nM.

With `O=C(COc1ccc(C(F)(F)F)c(F)c1)NC12CC(c3nnc(OCCOCC(F)(F)F)o3)(C1)C2` [Example 9, 2-(3-fluoro-4-(trifluoromethyl)phenoxy)-N-(3-(5-(2-(2,2,2-trifluoroethoxy)ethoxy)-1,3,4-oxadiazol-2-yl)bicyclo[1.1.1]pentan-1-yl)acetamide], the IC50 worked out at 6.1 nM.

For the origin of these results see patent US12091392B2, “Compounds, compositions and methods” (Denali Therapeutics Inc., priority 2019, dated 2024).
